# Data taken from PubChem BioAssay (NCI).
#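 Results reflect a 48-hour exposure of cells in 96-well plates to compound at five concentrations. GI50 marks 50% less growth. TGI denotes the concentration required for complete inhibition of growth.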
# What was measured:
# Assay in all cases: growth of human tumour cells (NCI), 48 h
# RPMI-8226 leukemia = tested on: RPMI-8226 leukemia
# MALME-3M melanoma = tested on: MALME-3M melanoma
# SK-MEL-28 melanoma = tested on: SK-MEL-28 melanoma
# SN12C renal = tested on: SN12C renal
# T-47D breast = tested on: T-47D breast
# RXF 393 renal = tested on: RXF 393 renal
# COLO 205 colon = tested on: COLO 205 colon
# NCI-H460 lung = tested on: NCI-H460 lung
# HS 578T breast = tested on: HS 578T breast
# UACC-62 melanoma = tested on: UACC-62 melanoma
# SNB-75 CNS = tested on: SNB-75 CNS
# U251 CNS = tested on: U251 CNS
# HT29 colon = tested on: HT29 colon
# A498 renal = tested on: A498 renal
# SF-539 CNS = tested on: SF-539 CNS
# MDA-MB-231 breast = tested on: MDA-MB-231 breast
# HL-60(TB) leukemia = tested on: HL-60(TB) leukemia
# MOLT-4 leukemia = tested on: MOLT-4 leukemia
# SNB-19 CNS = tested on: SNB-19 CNS
# SK-MEL-2 melanoma = tested on: SK-MEL-2 melanoma
# HCT-15 colon = tested on: HCT-15 colon
# M14 melanoma = tested on: M14 melanoma
# NCI-H522 lung = tested on: NCI-H522 lung
# UO-31 renal = tested on: UO-31 renal
# OVCAR-8 ovarian = tested on: OVCAR-8 ovarian
# HCT-116 colon = tested on: HCT-116 colon
# KM12 colon = tested on: KM12 colon
# SF-295 CNS = tested on: SF-295 CNS
# A549 NSCLC = tested on: A549 NSCLC
# NCI/ADR-RES ovarian = tested on: NCI/ADR-RES ovarian
# OVCAR-3 ovarian = tested on: OVCAR-3 ovarian
# K-562 leukemia = tested on: K-562 leukemia
# SW-620 colon = tested on: SW-620 colon
# TK-10 renal = tested on: TK-10 renal
# MCF7 breast = tested on: MCF7 breast
# LOX IMVI melanoma = tested on: LOX IMVI melanoma
# OVCAR-4 ovarian = tested on: OVCAR-4 ovarian
# OVCAR-5 ovarian = tested on: OVCAR-5 ovarian
# 786-0 renal = tested on: 786-0 renal
# ACHN renal = tested on: ACHN renal
# DU-145 prostate = tested on: DU-145 prostate
# SK-OV-3 ovarian = tested on: SK-OV-3 ovarian
# CAKI-1 renal = tested on: CAKI-1 renal
# MDA-MB-435 = tested on: MDA-MB-435
# HOP-62 NSCLC = tested on: HOP-62 NSCLC
# SK-MEL-5 melanoma = tested on: SK-MEL-5 melanoma
# IGROV1 ovarian = tested on: IGROV1 ovarian
# PC-3 prostate = tested on: PC-3 prostate
# HCC-2998 colon = tested on: HCC-2998 colon
# EKVX NSCLC = tested on: EKVX NSCLC
# SF-268 CNS = tested on: SF-268 CNS
# BT-549 breast = tested on: BT-549 breast
smiles,measurement,setting,value
Fc1ccc(-c2ncn(C3CCNCC3)c2-c2ccnc(Oc3ccc(Cl)cc3)n2)cc1,GI50,RPMI-8226 leukemia,5.44 µM
same,TGI,RPMI-8226 leukemia,15.3 µM
same,GI50,MALME-3M melanoma,4.64 µM
same,TGI,MALME-3M melanoma,10.1 µM
same,GI50,SK-MEL-28 melanoma,4.17 µM
same,TGI,SK-MEL-28 melanoma,7.85 µM
same,GI50,SN12C renal,3.67 µM
same,TGI,SN12C renal,7.17 µM
same,GI50,T-47D breast,2.74 µM
same,TGI,T-47D breast,6.71 µM
same,GI50,RXF 393 renal,2.56 µM
same,TGI,RXF 393 renal,5.91 µM
same,GI50,COLO 205 colon,3.76 µM
same,TGI,COLO 205 colon,7.31 µM
same,GI50,NCI-H460 lung,3.79 µM
same,TGI,NCI-H460 lung,7.49 µM
same,GI50,HS 578T breast,2.58 µM
same,TGI,HS 578T breast,> 11.3 µM
same,GI50,UACC-62 melanoma,4.18 µM
same,TGI,UACC-62 melanoma,8.04 µM
same,GI50,SNB-75 CNS,3.4 µM
same,TGI,SNB-75 CNS,14.3 µM
same,GI50,U251 CNS,3.66 µM
same,TGI,U251 CNS,7.24 µM
same,GI50,HT29 colon,3.25 µM
same,TGI,HT29 colon,6.68 µM
same,GI50,A498 renal,3.67 µM
same,TGI,A498 renal,21.4 µM
same,GI50,SF-539 CNS,4.2 µM
same,TGI,SF-539 CNS,8.39 µM
same,GI50,MDA-MB-231 breast,4.46 µM
same,TGI,MDA-MB-231 breast,8.6 µM
same,GI50,HL-60(TB) leukemia,4.96 µM
same,TGI,HL-60(TB) leukemia,11.6 µM
same,GI50,MOLT-4 leukemia,5.18 µM
same,TGI,MOLT-4 leukemia,12.9 µM
same,GI50,SNB-19 CNS,6.57 µM
same,TGI,SNB-19 CNS,> 18.7 µM
same,GI50,SK-MEL-2 melanoma,4.45 µM
same,TGI,SK-MEL-2 melanoma,8.67 µM
same,GI50,HCT-15 colon,4.24 µM
same,TGI,HCT-15 colon,9.46 µM
same,GI50,M14 melanoma,4.65 µM
same,TGI,M14 melanoma,9.09 µM
same,GI50,NCI-H522 lung,4.49 µM
same,TGI,NCI-H522 lung,9.34 µM
same,GI50,UO-31 renal,3.38 µM
same,TGI,UO-31 renal,12.2 µM
same,GI50,OVCAR-8 ovarian,4.14 µM
same,TGI,OVCAR-8 ovarian,8.99 µM
same,GI50,HCT-116 colon,3.97 µM
same,TGI,HCT-116 colon,7.65 µM
same,GI50,KM12 colon,4.51 µM
same,TGI,KM12 colon,8.79 µM
same,GI50,SF-295 CNS,4.39 µM
same,TGI,SF-295 CNS,9.26 µM
same,GI50,A549 NSCLC,5.23 µM
same,TGI,A549 NSCLC,12.8 µM
same,GI50,NCI/ADR-RES ovarian,6.03 µM
same,TGI,NCI/ADR-RES ovarian,> 22.7 µM
same,GI50,OVCAR-3 ovarian,4.09 µM
same,TGI,OVCAR-3 ovarian,7.9 µM
same,GI50,K-562 leukemia,4.7 µM
same,TGI,K-562 leukemia,11.2 µM
same,GI50,SW-620 colon,3.74 µM
same,TGI,SW-620 colon,7.3 µM
same,GI50,TK-10 renal,3.97 µM
same,TGI,TK-10 renal,7.97 µM
same,GI50,MCF7 breast,3.93 µM
same,TGI,MCF7 breast,7.7 µM
same,GI50,LOX IMVI melanoma,4.16 µM
same,TGI,LOX IMVI melanoma,8.29 µM
same,GI50,OVCAR-4 ovarian,4.15 µM
same,TGI,OVCAR-4 ovarian,9.69 µM
same,GI50,OVCAR-5 ovarian,5.09 µM
same,TGI,OVCAR-5 ovarian,14.9 µM
same,GI50,786-0 renal,4.54 µM
same,TGI,786-0 renal,10.8 µM
same,GI50,ACHN renal,4.19 µM
same,TGI,ACHN renal,10.6 µM
same,GI50,DU-145 prostate,6.37 µM
same,TGI,DU-145 prostate,> 15.8 µM
same,GI50,SK-OV-3 ovarian,3.88 µM
same,TGI,SK-OV-3 ovarian,8.12 µM
same,GI50,CAKI-1 renal,5.49 µM
same,TGI,CAKI-1 renal,> 16.7 µM
same,GI50,MDA-MB-435,4.04 µM
same,TGI,MDA-MB-435,8.21 µM
same,GI50,HOP-62 NSCLC,3.7 µM
same,TGI,HOP-62 NSCLC,7.46 µM
same,GI50,SK-MEL-5 melanoma,3.22 µM
same,TGI,SK-MEL-5 melanoma,6.41 µM
same,GI50,IGROV1 ovarian,4.62 µM
same,TGI,IGROV1 ovarian,13.3 µM
same,GI50,PC-3 prostate,6.31 µM
same,TGI,PC-3 prostate,> 15.9 µM
same,GI50,HCC-2998 colon,4.12 µM
same,TGI,HCC-2998 colon,7.93 µM
same,GI50,EKVX NSCLC,6 µM
same,TGI,EKVX NSCLC,> 21.3 µM
same,GI50,SF-268 CNS,8.67 µM
same,TGI,SF-268 CNS,> 25 µM
same,GI50,BT-549 breast,5.05 µM
same,TGI,BT-549 breast,18.8 µM
